2 compounds from ChEMBL document CHEMBL3390847, “Boronic acids in medicinal chemistry: anticancer, antibacterial and antiviral applications” (Medchemcomm, 2010) can be followed below.

The nature of test [1]: Inhibition of beta-lactamase SHV-1 D104K/G238S mutant (unknown origin) expressed in Escherichia coli DH10B using nitrocefin as substrate.
A short description of test [2]: Inhibition of beta-lactamase SHV-1 (unknown origin) expressed in Escherichia coli DH10B using nitrocefin as substrate.
A short description of test [3]: Cytotoxicity against human MCF10A cells. The test is classed as cell-based. The following applies: MCF-10A.
A short description of test [4]: Cytotoxicity against human MCF12A cells. The class given is cell-based. The following applies: MCF-12A.

Structures are written as SMILES.

By Ki is commonly meant a dissociation constant, usually derived from enzyme kinetics or from competition with a known ligand. For the compound `CC(=O)NCB(O)O` [ACETAMIDOMETHYLBORONIC ACID], the inhibitory constant (Ki) in test [1] was 1.1 µM; in test [2], 8.9 µM.

Broadly, the IC50 is the concentration needed to halve the response being measured. A high value points to lower potency. On to `O=C(/C=C/c1ccc(I)cc1)c1ccc(OCB(O)O)cc1`, for which the IC50 is 38 µM in test [3] and 100 µM in test [4].
